Experimental data taken from EP4324461A1, “(E)-N-CINAMOYLAMINOALKANOLES WITH MELANOGENESIS INHIBITORY ACTIVITY” (UNIWERSYTET JAGIELLONSKI, priority 2022, dated 2024).
≈ marks a conversion by molar mass, not a printed value. Read-outs that look alike come from different tables or passages of the source.

Key:
[1] = tested on: human reconstructed epidermis Episkin™; assay: Skin irritation test in reconstructed human epidermis (Episkin); details: 5% aqueous, 15 min exposure, 42 h incubation
Experimental: The study used human reconstructed epidermis Episkin™ with an area of 1.07 cm^2. Immediately after receipt, the tissue was transferred to fresh medium and cultured in an incubator (37 °C, 5% CO2) for 18 hours. Before performing experiments, the inserts were washed with sterile PBS and placed in the wells of a 12-well plate containing 2 mL of fresh culture medium. […] After 15 min of exposure, samples were washed with PBS (5x5 mL). The inserts were transferred to plates with fresh culture medium and incubated for 42 hours (37 °C, 5% CO2). After this time, the entire medium was collected to assess the amount of released interleukin 1α (the medium was stored at -20 °C until the experiment was performed), and the inserts were transferred to the MTT solution. […] Measurement of the absorbance of the samples obtained in this way at 570 nm enabled the assessment of tissue viability according to the formula: % Viability = [OD (570 nm) for the tested compound/OD (570 nm) for the control] × 100.

tyrosinase [2] = details: cited from earlier work; for mechanism of tyrosinase inhibition: references [6], [7]
[3] = tested on: Balb/c 3T3 murine fibroblast cell line; assay: Phototoxicity in Balb/c 3T3 fibroblasts (neutral red uptake)
Experimental: Balb/c 3T3 cells, which are an immortalized murine fibroblast cell line, were purchased at ATTC and cultured in the medium recommended by the manufacturer (DMEM GlutaMAX, newborn calf serum (BCS), antibiotics). After multiplication, cells were placed in 96-well plates, which were incubated for 24 hours, after which all wells of the plates were washed with 150 µL of balanced salt solution (HBSS). Then, after drying the plates, 100 µL of a solution of the tested compounds in HBSS with 2% FBS was added to each well and incubated for an hour. After this time, some of the plates were irradiated using the Suntest CPS+ sunlight simulator from Atlas with appropriate filters cutting off radiation with a wavelength <320 nm (UVA radiation intensity 5 J/cm^2). The second part of the plates was placed in radiation-free conditions for the same period of time. After the exposure time, the liquid was removed from all plates and the wells were washed twice with 150 µL of HBSS, then supplemented with fresh culture medium and incubated for 24 hours in an incubator (37 °C, 5% CO2). Viability was assessed in the neutral red uptake test, which is based on the ability of the dye to penetrate only into living cells. Dye uptake was confirmed by absorbance measurement at 540 nm. […] The appropriate coefficients were also calculated: mean phototoxic effect (MPE) and photoirritation factor (PIF). PIF is the ratio of the IC50 values of unirradiated to irradiated cells, while MPE is based on the comparison of concentration-response curves. […]

[4] = tested on: reconstituted human epidermis EpiDerm; details: 21 h, 0.01 %
Experimental: An epidermis with an area of 0.6 cm^2 was used. After receiving the tissue, the inserts were transferred to fresh medium and incubated in an incubator (5% CO2, 37 °C). All work during epidermis culture and application of the tested compounds and formulations was carried out in a laminar air flow chamber, using aseptic principles and sterile reagents and utensils. […] The applied solutions and formulation were spread on the surface of the inserts using a sterile glass bulb headed Pasteur pipette. The plates were incubated in the incubator for 21 hours, after which the inserts were transferred to new 6-well plates with 0.9 mL DBPS. 1 plate was exposed to UVA radiation at a dose of 6 J/cm^2 using a solar light simulator (Solar Simulator, Atlas) as its source (+UVA plate). The second plate was placed in a dark place outside the incubator for the same period of time (-UVA plate). After exposure, inserts from both plates were rinsed with DPBS, dried with a sterile cotton bud and placed in new plates containing 0.9 mL of fresh growth medium and incubated for 21 hours. After this time, the MTT test was performed by placing the inserts in 0.3 mL of MTT solution in DMEM medium (concentration 1 mg/mL) for 3 hours. After this time, the formed formazan was extracted into isopropanol and the absorbance of all samples was read at 270 nm. […]

[5] = Lipophilicity coefficient RM0 by reversed phase thin layer chromatography; assay type: physicochemical; details: RP-18 TLC, methanol / 100 mM phosphate buffer pH = 7.4
Summary of the method: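 Reversed-phase TLC on RP-18 F254 silica, with methanol/100 mM phosphate buffer pH 7.4 mobile phases of 95–65% (v/v) methanol, at room temperature, in duplicate. Spots were visualized under UV at 254 nm. RM = log(1/Rf − 1) was plotted linearly against methanol content to derive RM0.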

[6] = tested on: Chinese hamster ovary cell line (CHO-K1); assay: Cytotoxicity in CHO-K1 cells (MTT) before the micronucleus test; assay type: cell-based; details: 24 hours
Experimental: The assay was performed using a Chinese hamster ovary cell line (CHO-K1) purchased from the American Type Culture Collection (ATCC). The cells were cultured in F-12K medium with the addition of 10% fetal bovine serum (FBS) and antibiotics (streptomycin/penicillin) in an incubator at 37 °C and 5% CO2 concentration). Before the actual micronucleus test, a cytotoxicity assessment was performed to ensure that the actual test was performed only at safe concentrations. For this purpose, cells were transferred to 96-well plates and incubated with the tested compounds for 24 hours. After this time, the MTT test was performed and cell viability was assessed in comparison to the control group (cells cultured with DMSO at the same concentration as in the case of the tested samples).

S. typhimurium TA100 = assay: Ames microplate test, TA100; assay type: cell-based, Salmonella typhimurium; details: without S9;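 further: reference level is the mean solvent-control yellow wells plus SD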
Experimental: (§1) Bacteria were grown overnight in growth medium.
(§2) Table 9. Ames microplate test results.

S. typhimurium TA98 = assay: Ames microplate test, TA98; assay type: cell-based, Salmonella typhimurium; details: without S9;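 further: reference level is the mean solvent-control yellow wells plus SD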
Experimental: as §1, §2

S. typhimurium TA1537 = assay: Ames microplate test, TA1537; assay type: cell-based, Salmonella typhimurium; details: without S9;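 further: reference level is the mean solvent-control yellow wells plus SD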
Experimental: as §1, §2

E. coli WP2 = assay: Ames microplate test, E. coli WP2; details: without S9;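 further: bacteria treated 90 min at 37 °C in 24-well plates, then indicator medium dispensed to 384-well plates and incubated 48 h before yellow-well counting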
[7] = tested on: Chinese hamster ovary cell line (CHO-K1); assay: Genotoxicity in the micronucleus test in CHO-K1 cells; assay type: cell-based
[8] = tested on: B16-F10 murine melanoma cell line; assay: Cytotoxicity in B16-F10 cells (MTT); assay type: cell-based; details: 48 h
Summary of the method: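 Cells in F10-Ham with 1% FBS exposed to various compound concentrations for 48 h after 24 h pre-culture. MTT read-out: formazan dissolved in DMSO, absorbance at 570 nm. Viability expressed as percent of DMSO control (AT/AC×100).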

S. typhimurium TA1535 = assay: Ames microplate test, TA1535; details: without S9;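 further: bacteria exposed to compound 90 min at 37 °C, then kept 48 h at 37 °C with indicator medium in 384-well plates, scoring wells that turned yellow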
Experimental: The study used the Ames microplate test (Ames MPF™ Penta 2 by Xenometrix, Allschwil, Switzerland). Growth medium, exposure medium, indicator medium, positive controls, hepatic microsomal fraction, NADP, glucose-6-phosphate, Salmonella typhimurium and Escherichia coli strains were components of the purchased experimental kit. Bacteria were grown overnight in growth medium. They were then exposed to the test compound at the appropriate concentration in exposure medium without or with the rat microsomal fraction S9 in 24-well plates for 90 min at 37 °C with shaking. Then, indicator medium was added to the wells and pipetted into 384-well plates, which were incubated for 48 hours at 37 °C without shaking. Results were assessed by counting the wells in which the medium turned yellow for each experimental condition.

tyrosinase from mushroom = assay: Inhibition of commercial mushroom tyrosinase (L-DOPA or L-tyrosine substrate); assay type: biochemical
Summary of the method: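 Tyrosinase (1U/well or 3U/well) in 50 mM phosphate buffer pH 6.8 with compound at final 500, 250 or 125 µM; L-DOPA (diphenolase) or L-tyrosine (monophenolase) added in separate runs. Absorbance at 475 nm after 25 min; % inhibition versus DMSO control.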

[9] = 7-day application of a cream to the skin before exposure to UV radiation; compared to untreated skin; reference [8]; cited from earlier work
tyrosinase [10] = details: reference [11], cited from earlier work
[11] = reference [7], read-out: IC50, tyrosinase inhibition
[12] = reference [6], read-out: IC50, tyrosinase diphenolase activity

CCCCCCCCCCCCOS(=O)(=O)[O-].[Na+] [SDS, sodium lauryl sulfate]
tissue viability ([1]; compared to the negative control (PBS and PEG400)): 23.8%
IL-1α concentration in the culture medium ([1]; positive control): > 250 pg/mL

O=C(O)C=Cc1ccc(Cl)cc1Cl [2,4-dichlorocinnamic acid]
IC50 (tyrosinase [2]; [11]): 295 µM
mechanism of tyrosinase inhibition (tyrosinase [2]): reversible non-competitive mechanism

COc1ccc(C=CC(=O)O)cc1 [4-methoxycinnamic acid]
IC50 (tyrosinase [2]; [12]): 420 µM

CN(C)CCCN1c2ccccc2Sc2ccc(Cl)cc21 [Chlorpromazine, reference compound]
phototoxic potential [3]: clearly indicate its phototoxic potential
IC50 ([3]; Mus musculus, BALB/c3T3): 18.6 µg/mL (≈ 58.2 µM)
MPE ([3]; mouse, 1 h): 0.499
PIF ([3]; mouse, 1 h): 25.618
Viability [% relative to water] ± SD [4]: 99.52±9.41 % relative to water

O=C(O)C=Cc1ccccc1Cl [2-Chlorocinnamic acid]
IC50 (tyrosinase [2]; [11]): 765 µM
mechanism of tyrosinase inhibition (tyrosinase [2]): reversible non-competitive mechanism

CC(CO)NC(=O)/C=C/c1ccc(Cl)cc1 (stereo not shown) [Compound A-102, (2E)-3-(4-chlorophenyl)-N-(1-hydroxypropan-2-yl)prop-2-enamide]
RM0 [5]: 2.12
% Viability [mean] ([6]; 100 µM): 84.7%
% Viability [mean] ([6]; 150 µM): 69.9%
% Viability [mean] ([6]; 200 µM): 87.2%
Increase in the number of yellow wells compared to the reference level (S. typhimurium TA100; 0.5 mM): 1.08
Increase in the number of yellow wells compared to the reference level (S. typhimurium TA100; 1.0 mM): 0.75
Increase in the number of yellow wells compared to the reference level (S. typhimurium TA100; 2.0 mM): 0.92
Increase in the number of yellow wells compared to the reference level (S. typhimurium TA98; 0.5 mM): 0.24
Increase in the number of yellow wells compared to the reference level (S. typhimurium TA98; 1.0 mM): 0.24
Increase in the number of yellow wells compared to the reference level (S. typhimurium TA98; 2.0 mM): 0.35
Increase in the number of yellow wells compared to the reference level (S. typhimurium TA1537; 0.5 mM): 0.33
Increase in the number of yellow wells compared to the reference level (S. typhimurium TA1537; 1.0 mM): 0.00
Increase in the number of yellow wells compared to the reference level (S. typhimurium TA1537; 2.0 mM): 1.00
Increase in the number of yellow wells compared to the reference level (E. coli WP2; 0.5 mM): 0.48
Increase in the number of yellow wells compared to the reference level (E. coli WP2; 1.0 mM): 1.03
Increase in the number of yellow wells compared to the reference level (E. coli WP2; 2.0 mM): 0.79
DB (dicentric bridges in 1000 binucleate cells) ([7]; 100 µM): 4.0 ± 2.8
MN (number of micronuclei in 1000 binucleate cells) ([7]; 100 µM): 10.5 ± 2.1
NB (nuclear buds in 1000 binucleate cells) ([7]; 100 µM): 5.5 ± 2.1
NDI (nuclear division index) ([7]; 100 µM): 1.54
DB (dicentric bridges in 1000 binucleate cells) ([7]; 150 µM): 2.5 ± 2.1
MN (number of micronuclei in 1000 binucleate cells) ([7]; 150 µM): 6.5 ± 2.1
NB (nuclear buds in 1000 binucleate cells) ([7]; 150 µM): 6.5 ± 2.1
NDI (nuclear division index) ([7]; 150 µM): 1.54
DB (dicentric bridges in 1000 binucleate cells) ([7]; 200 µM): 3.0 ± 1.4
MN (number of micronuclei in 1000 binucleate cells) ([7]; 200 µM): 8.5 ± 0.7
NB (nuclear buds in 1000 binucleate cells) ([7]; 200 µM): 4.0 ± 1.4
NDI (nuclear division index) ([7]; 200 µM): 1.60
Cytotoxicity study in B16F10 cells % viability ([8]; 150 µM): 80.6%
Cytotoxicity study in B16F10 cells % viability ([8]; 200 µM): 83.5%
Cytotoxicity study in B16F10 cells % viability ([8]; 250 µM): 75.7%
Increase in the number of yellow wells compared to the reference level (S. typhimurium TA1535; 0.5 mM): 0.55
Increase in the number of yellow wells compared to the reference level (S. typhimurium TA1535; 1.0 mM): 0.14
Increase in the number of yellow wells compared to the reference level (S. typhimurium TA1535; 2.0 mM): 0.89
Tyrosinase inhibition with L-DOPA [%] (tyrosinase from mushroom; L-DOPA): 53.02±1.99% (500 µM)
IC50 (tyrosinase from mushroom; L-DOPA, read-out: Tyrosinase inhibition with L-DOPA, IC50): 440 µM
Tyrosinase inhibition with L-tyrosine [%] (tyrosinase from mushroom; L-tyrosine): 75.45±1.80% (500 µM)
IC50 (tyrosinase from mushroom; L-tyrosine, read-out: Tyrosinase inhibition with L-tyrosine, IC50): 164 µM

O=C(O)C=Cc1ccc(O)cc1 [4-Hydroxycinnamic acid]
IC50 (tyrosinase [2]; [12]): 500 µM
inhibition of erythema formation [9]: 77%

CCOC(=O)[C@H](Cc1ccccc1)NC(=O)C=Cc1ccc(O)c(OC)c1 (stereo in doubt) [N-[3-(4-hydroxy-3-methoxyphenyl)-1-oxo-2-propen-1-yl]-L-phenylalanine ethyl ester]
type of inhibition (tyrosinase [10]): mixed type of inhibition
IC50 (tyrosinase [10]; read-out: IC50, tyrosinase inhibition): 0.185 ± 0.005 µM

O=C(O)C=Cc1ccccc1 [Cinnamic acid]
mechanism of tyrosinase inhibition (tyrosinase [2]): non-competitive inhibitor
